In patent publication US20250361234A1 (NICO THERAPEUTICS, INC., priority 2022, published 2025):

Target: T1, full-length SARM1 (FL-SARM1) (Homo sapiens, UniProt Q6SZW1)
T1 sequence (Q6SZW1 28-724): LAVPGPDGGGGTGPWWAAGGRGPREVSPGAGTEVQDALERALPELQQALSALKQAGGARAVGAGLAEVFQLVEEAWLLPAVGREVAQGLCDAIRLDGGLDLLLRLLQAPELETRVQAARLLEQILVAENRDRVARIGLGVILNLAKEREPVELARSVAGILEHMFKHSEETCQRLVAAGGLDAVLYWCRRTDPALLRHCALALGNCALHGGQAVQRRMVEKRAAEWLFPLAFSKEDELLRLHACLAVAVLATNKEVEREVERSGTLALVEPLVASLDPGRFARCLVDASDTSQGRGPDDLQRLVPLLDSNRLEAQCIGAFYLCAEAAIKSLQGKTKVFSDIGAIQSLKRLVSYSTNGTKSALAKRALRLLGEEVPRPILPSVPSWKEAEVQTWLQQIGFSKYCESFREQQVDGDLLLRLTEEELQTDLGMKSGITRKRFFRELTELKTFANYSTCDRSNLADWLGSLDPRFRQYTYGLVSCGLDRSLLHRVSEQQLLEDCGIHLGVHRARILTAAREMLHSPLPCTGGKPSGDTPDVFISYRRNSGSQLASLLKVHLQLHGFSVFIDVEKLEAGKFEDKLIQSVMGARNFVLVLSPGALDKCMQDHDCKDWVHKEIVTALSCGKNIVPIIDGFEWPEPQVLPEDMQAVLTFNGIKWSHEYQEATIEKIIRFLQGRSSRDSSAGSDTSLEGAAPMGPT
Experiment: FL-SARM1 cellular lysate assay (NAD/NADH-Glo readout of remaining NAD+)
Conditions: SARM1 cellular lysate from transfected HEK293T cells, NAD+ and NMN, 11 point curve
Description: Preparation of full-length SARM1 (FL-SARM1) lysate: HEK293T cells (ATCC: CRL-3216) were grown on 150 mm TC-treated dishes to 80-90% confluency in complete DMEM (Thermo Fisher: 11965175) supplemented with 10% HI-FBS (VWR: 10802-772), 1× Pen/Strep (Thermo Fisher: 15140122), 1× NEAA (Thermo Fisher: 1140050), 1× glutamax (Thermo Fisher: 35050061), and 1 mM sodium pyruvate (Thermo Fisher: 11360070)) at 37° C. and 5% CO2. One hour prior to transfection, the media was replaced with fresh, 37° C. complete DMEM (20 mL per one 150 mm dish) supplemented with additional 10 mM glucose (Alfa Aesar AAJ60067EQE). Per one 150 mm dish, 30 μg FL-SARM1 (SEQ. ID. 1; cloned in-house) plasmid was dissolved in 1 mL DMEM at ambient temperature and were mixed by inverting the tube 8-10 times. 90 μL of GenJet™ in vitro DNA transfection reagent (Ver2) was dissolved in 1 mL DMEM at ambient temperature and were mixed by inverting the tube 8-10 times. The plasmid and transfection agent solutions were combined, mixed by 8-10 inversions and incubated for 10 minutes at ambient temperature. 2 mL of this transfection mixture was added to each dish containing HEK293T cells as prepared above followed by a gentle mixing of 4-5 horizontal rotations. The dishes were incubated at 37° C. and 5% CO2 for 24 h. The dishes were removed from the incubator, the medium was aspirated and the cells were scraped off using cell scrapers in ice-cold 1× PBS (5 mL/dish, Thermo Fisher Scientific 10010023). The collected cells were centrifuged at 300 g for 5 minutes at 4° C. The supernatant was aspirated and the pellet was frozen at −80° C. until needed. The cell pellet from 30 dishes was dissolved in 30 mL 1× PBS supplemented with 4 tablets of Complete, Mini EDTA-free protease inhibitor cocktail at 4° C. This mixture was sonicated on ice for 10 minutes at 50% amplitude with a 1 second on/1 second off interval using a Model 120 sonicator (Thermo Fisher Scientific, FB120110). The lysate was centrifuged at 16000 g for 10 minutes at 4° C.
To a white 384-well Proxiplate (PerkinElmer, PE-6008280) was added 50 nL/well of a DMSO solution containing test compounds followed by 7.5 mL/well of a 0.067 mg/mL solution of SARM1 cellular lysate in reaction buffer (DPBS containing CHAPSO (0.1%) and fatty acid free BSA (0.032%)). The plate was centrifuged for 1 minute at 1000 RPM and then placed in an incubator at 23° C. for 15 minutes. To the wells were added 2.5 mL/well of a solution containing 40 mM NAD^+ and 4 mM NMN in reaction buffer. The plate was centrifuged for 1 min at 1000 RPM, the plate was sealed and placed in an incubator at 23° C. for 3.5 hours before adding 3.5 mL/well of NAD/NADH-Glo™ solution (preparation as described by Promega using the extended detection protocol). The plate was centrifuged for 1 minute at 1000 RPM and then incubated at 23° C. for 20 minutes. 1 mL/well of a 3.625 mM solution of menadione in DMSO was added and the plate was centrifuged for 1 minute at 1000 RPM. […] Percent inhibition was calculated as follows:
IC50 values were calculated from an 11 point curve using ½ log dilutions using a four-parameter logistic regression curve fit.

Cc1ccc(NC(=O)N2C3CC2CC2(CC2)C3)cc1-c1cncc(F)c1 [Example 54, N-(3-(5-fluoropyridin-3-yl)-4-methylphenyl)-6-azaspiro[bicyclo[3.1.1]heptane-3,1′-cyclopropane]-6-carboxamide]
IC50 (Activity (μM)): 0.06 µM | IC50 (Activity): 0.0001 to 1 µM

Cc1ccc(NC(=O)N2C3CC[C@H](C#N)[C@@H]2C3)cc1-c1cncc(F)c1 [Example 30, cis-2-cyano-N-(3-(5-fluoropyridin-3-yl)-4-methylphenyl)-6-azabicyclo[3.1.1]heptane-6-carboxamide]
IC50 (Activity (μM)): 5.5 µM | IC50 (Activity): 1 to 10 µM

Cc1ccc(NC(=O)N2C3CCCC2C3)cc1-c1cncc(S(C)(=O)=O)c1 [Example 47, N-(4-methyl-3-(5-(methylsulfonyl)pyridin-3-yl)phenyl)-6-azabicyclo[3.1.1]heptane-6-carboxamide]
IC50 (Activity (μM)): 17 µM | IC50 (Activity): > 10 µM

Cc1ccc(NC(=O)[C@H]2C[C@@](C#N)(C3CC3)C2)cc1-c1cncc(F)c1 [Example 106, trans-3-cyano-3-cyclopropyl-N-[3-(5-fluoropyridin-3-yl)-4-methylphenyl]cyclobutane-1-carboxamide]
IC50 (Activity (μM)): 0.6 µM | IC50 (Activity): 0.0001 to 1 µM

Cc1ccc(NC(=O)N2C3CCC2COC3)cc1-c1cncc(F)c1 [Example 94, N-[3-(5-fluoropyridin-3-yl)-4-methylphenyl]-3-oxa-8-azabicyclo[3.2.1]octane-8-carboxamide]
IC50 (Activity (μM)): 2.8 µM | IC50 (Activity): 1 to 10 µM

CCO[C@H]1CC2C[C@H](C1)N2C(=O)Nc1ccc(C)c(-c2cncc(F)c2)c1 [Example 39, trans-3-ethoxy-N-(3-(5-fluoropyridin-3-yl)-4-methylphenyl)-6-azabicyclo[3.1.1]heptane-6-carboxamide]
IC50 (Activity (μM)): 8.3 µM | IC50 (Activity): 1 to 10 µM

Cc1ccc(NC(=O)N2C3CCCC2C3)cc1-c1cncc(F)c1C [Example 92, N-(3-(5-fluoro-4-methylpyridin-3-yl)-4-methylphenyl)-6-azabicyclo[3.1.1]heptane-6-carboxamide]
IC50 (Activity (μM)): 0.5 µM | IC50 (Activity): 0.0001 to 1 µM

C[C@H]1CC2C[C@@H](C1)N2C(=O)Nc1ccc(C#N)c(-c2cncc(F)c2)c1 (single isomer, unassigned) [Example 78, cis-N-(4-cyano-3-(5-fluoropyridin-3-yl)phenyl)-3-methyl-6-azabicyclo[3.1.1]heptane-6-carboxamide]
IC50 (Activity (μM)): 0.1 µM | IC50 (Activity): 0.0001 to 1 µM

Cc1ccc(NC(=O)N2C3CCCC2(C(=O)N2CCCC2)C3)cc1-c1cncc(F)c1 (stereo not shown) [Example 93, N-[3-(5-fluoropyridin-3-yl)-4-methylphenyl]-1-(pyrrolidine-1-carbonyl)-6-azabicyclo[3.1.1]heptane-6-carboxamide]
IC50 (Activity (μM)): 4.4 µM | IC50 (Activity): 1 to 10 µM

Cc1nnc([C@]23C[C@H](C)C[C@H](C2)N3C(=O)Nc2cc(-c3cncc(F)c3)c(C(F)(F)F)cc2F)o1 (single isomer, unassigned) [Example 135, cis-N-[2-fluoro-5-(5-fluoro-3-pyridinyl)-4-(trifluoromethyl)phenyl]-3-methyl-1-(5-methyl-1,3,4-oxadiazol-2-yl)-6-azabicyclo[3.1.1]heptane-6-carboxamide]
IC50 (Activity (μM)): 0.03 µM | IC50 (Activity): 0.0001 to 1 µM

C[C@@H]1CC2C[C@H](C1)N2C(=O)Nc1ccc(C2CC2)c(-c2cncc(F)c2)c1 (single isomer, unassigned) [Example 51, cis-N-(4-cyclopropyl-3-(5-fluoropyridin-3-yl)phenyl)-3-methyl-6-azabicyclo[3.1.1]heptane-6-carboxamide]
IC50 (Activity (μM)): 0.2 µM | IC50 (Activity): 0.0001 to 1 µM

Cc1ccc(NC(=O)[C@@H]2CC2(F)F)cc1-c1cnc(C(F)(F)F)nc1 [Example 113, (1S)-2,2-difluoro-N-[4-methyl-3-[2-(trifluoromethyl)pyrimidin-5-yl]phenyl]cyclopropane-1-carboxamide]
IC50 (Activity (μM)): 34.4 µM | IC50 (Activity): > 10 µM

Cc1ccc(NC(=O)N2C3CCCC2C3)cc1-c1cnc(C)c(F)c1 [Example 89, N-(3-(5-fluoro-6-methylpyridin-3-yl)-4-methylphenyl)-6-azabicyclo[3.1.1]heptane-6-carboxamide]
IC50 (Activity (μM)): 0.4 µM | IC50 (Activity): 0.0001 to 1 µM

Cc1ncc(-c2cc(NC(=O)N3C4CCCC3C4)ccc2C)cn1 [Example 85, N-(4-methyl-3-(2-methylpyrimidin-5-yl)phenyl)-6-azabicyclo[3.1.1]heptane-6-carboxamide]
IC50 (Activity (μM)): 1.8 µM | IC50 (Activity): 1 to 10 µM

Cc1ccc(NC(=O)N2C3CCCC2C3)cc1-c1ccnnc1 [Example 63]
IC50 (Activity (μM)): 25.9 µM | IC50 (Activity): > 10 µM

Cc1ccc(NC(=O)CC2CCC2)cc1-c1cccnc1 [Example 114, 2-cyclobutyl-N-(4-methyl-3-pyridin-3-ylphenyl)acetamide]
IC50 (Activity (μM)): 4.3 µM | IC50 (Activity): 1 to 10 µM

C[C@@H]1CC2C[C@@H](C1)N2C(=O)Nc1ccc(C(F)(F)F)c(-c2cncc(F)c2)c1 (single isomer, unassigned) [Example 52, trans-N-(3-(5-fluoropyridin-3-yl)-4-(trifluoromethyl)phenyl)-3-methyl-6-azabicyclo[3.1.1]heptane-6-carboxamide]
IC50 (Activity (μM)): 0.08 µM | IC50 (Activity): 0.0001 to 1 µM

Cc1ccc(NC(=O)N2C3CC(=O)CC2C3)cc1-c1cncc(F)c1 [Example 38, N-(3-(5-fluoropyridin-3-yl)-4-methylphenyl)-3-oxo-6-azabicyclo[3.1.1]heptane-6-carboxamide]
IC50 (Activity (μM)): 2.3 µM | IC50 (Activity): 1 to 10 µM

C[C@H]1CC2C[C@@H](C1)N2C(=O)Nc1ccc(Cl)c(-c2cncc(F)c2)c1 (single isomer, unassigned) [Example 80, cis-N-(4-chloro-3-(5-fluoropyridin-3-yl)phenyl)-3-methyl-6-azabicyclo[3.1.1]heptane-6-carboxamide]
IC50 (Activity (μM)): 0.07 µM | IC50 (Activity): 0.0001 to 1 µM

Cc1ccc(NC(=O)N2[C@H](C)CCC[C@H]2C)cc1-c1cncc(F)c1 [Example 22, (2R,6R)-N-(3-(5-fluoropyridin-3-yl)-4-methylphenyl)-2,6-dimethylpiperidine-1-carboxamide]
IC50 (Activity (μM)): 1.2 µM | IC50 (Activity): 1 to 10 µM

Cc1ccc(NC(=O)N2C3CC[C@@H](C(=O)N(C)C)[C@@H]2C3)cc1-c1cncc(F)c1 [Example 34, trans-N^6-(3-(5-fluoropyridin-3-yl)-4-methylphenyl)-N^2,N^2-dimethyl-6-azabicyclo[3.1.1]heptane-2,6-dicarboxamide]
IC50 (Activity (μM)): 47.3 µM | IC50 (Activity): > 10 µM

Cc1nnc([C@]23C[C@H](C)C[C@H](C2)N3C(=O)Nc2ccc(C)c(-c3cncc(F)c3)c2)o1 (single isomer, unassigned) [Example 127, cis-N-(3-(5-fluoropyridin-3-yl)-4-methylphenyl)-3-methyl-1-(5-methyl-1,3,4-oxadiazol-2-yl)-6-azabicyclo[3.1.1]heptane-6-carboxamide]
IC50 (Activity (μM)): 0.01 µM | IC50 (Activity): 0.0001 to 1 µM

COC(=O)[C@H]1CCC2C[C@@H]1N2C(=O)Nc1ccc(C)c(-c2cncc(F)c2)c1 [Example 40, cis-methyl 6-((3-(5-fluoropyridin-3-yl)-4-methylphenyl)carbamoyl)-6-azabicyclo[3.1.1]heptane-2-carboxylate]
IC50 (Activity (μM)): 20.9 µM | IC50 (Activity): > 10 µM

CO[C@@H]1CC[C@H]2CC1N2C(=O)Nc1ccc(C)c(-c2cncc(F)c2)c1 [Example 7, trans-N-(3-(5-fluoropyridin-3-yl)-4-methylphenyl)-2-methoxy-6-azabicyclo[3.1.1]heptane-6-carboxamide]
IC50 (Activity (μM)): 2 µM | IC50 (Activity): 1 to 10 µM

COc1cncc(-c2cc(NC(=O)N3C4CCCC3C4)ccc2C)c1 [Example 71, N-(3-(5-methoxypyridin-3-yl)-4-methylphenyl)-6-azabicyclo[3.1.1]heptane-6-carboxamide]
IC50 (Activity (μM)): 0.08 µM | IC50 (Activity): 0.0001 to 1 µM

C[C@@H]1CC2C[C@@H](C1)N2C(=O)Nc1ccc(C2CC2)c(-c2cncc(F)c2)c1 (single isomer, unassigned) [Example 50, trans-N-(4-cyclopropyl-3-(5-fluoropyridin-3-yl)phenyl)-3-methyl-6-azabicyclo[3.1.1]heptane-6-carboxamide]
IC50 (Activity (μM)): 0.2 µM | IC50 (Activity): 0.0001 to 1 µM

Cc1ccc(NC(=O)N2C3C[C@H]2C[C@@]2(C3)CC2(F)F)cc1-c1cncc(F)c1 [Example 11, cis-2′,2′-difluoro-N-(3-(5-fluoropyridin-3-yl)-4-methylphenyl)-6-azaspiro[bicyclo[3.1.1]heptane-3,1′-cyclopropane]-6-carboxamide]
IC50 (Activity (μM)): 0.08 µM | IC50 (Activity): 0.0001 to 1 µM

Cc1ccc(NC(=O)N2C3CCCC2C3)cc1-c1cncc(F)c1 [Example 87, N-(3-(5-fluoropyridin-3-yl)-4-methylphenyl)-6-azabicyclo[3.1.1]heptane-6-carboxamide]
IC50 (Activity (μM)): 0.1 µM | IC50 (Activity): 0.0001 to 1 µM

Cc1ccc(NC(=O)[C@H]2C[C@](C#N)(C3CC3)C2)cc1-c1cncc(F)c1 [Example 107, cis-3-cyano-3-cyclopropyl-N-[3-(5-fluoropyridin-3-yl)-4-methylphenyl]cyclobutane-1-carboxamide]
IC50 (Activity (μM)): 38.9 µM | IC50 (Activity): > 10 µM
